# Results: patent US7622581B2, “6,7,8,9-substituted 1-phenyl-1,5-dihydro-pyrido[3,2-b]indol-2-ones useful as anti-infective pharmaceutical agents” (Tibotec Pharmaceuticals Ltd., priority 2004, dated 2009)
# System: HIV
# Experiment: Cellular assay: anti-viral activity in HIV-infected MT4 cells (MTT viability)
# Format: cell-based
# Conditions: Human immunodeficiency virus 1, 120 h, five days incubation, MTT readout, negative logarithm of EC50 (protection of 50% of cells from cytopathogenic effect of the virus)
# Description: The compounds of the present invention were examined for anti-viral activity in a cellular assay, which was performed according to the following procedure.
# HIV- or mock-infected MT4 cells were incubated for five days in the presence of various concentrations of the inhibitor. At the end of the incubation period, the replicating virus in the control cultures has killed all HIV-infected cells in the absence of any inhibitor. Cell viability was determined by measuring the concentration of MTT, a yellow, water soluble tetrazolium dye that is converted to a purple, water insoluble formazan in the mitochondria of living cells only. Upon solubilization of the resulting formazan crystals with isopropanol, the absorbance of the solution was monitored at 540 nm. The values correlate directly to the number of living cells remaining in the culture at the completion of the five day incubation. The inhibitory activity of the compound was monitored on the virus-infected cells and was expressed as EC50 and EC90. These values represent the amount of the compound required to protect 50% and 90%, respectively, of the cells from the cytopathogenic effect of the virus. The toxicity of the compound was measured on the mock-infected cells and was expressed as CC50, which represents the concentration of compound required to inhibit the growth of the cells by 50%. The selectivity index (SI) (ratio CC50/EC50) is an indication of the selectivity of the anti-HIV activity of the inhibitor. Wherever results are reported as e.g. pEC50 or pCC50 values, the result is expressed as the negative logarithm of the result expressed as EC50 or CC50 respectively.
row,SMILES,EC50
1,"Cn1c2ccc(N3CCOCC3)cc2c2c1cc(C#N)c(=O)n2-c1ccc([N+](=O)[O-])cc1 [Compound 3, 8-morpholin-5-methyl-1-(4-nitro-phenyl)-2-oxo-2,5-dihydro-1H-pyrido[3,2-b]indole-3-carbonitrile]",2.51 µM
2,Cn1c2ccc(N)cc2c2c1cc(C#N)c(=O)n2-c1ccc([N+](=O)[O-])cc1 [Compound 8],20 µM
3,COC(=O)c1ccc2c(c1)c1c(cc(C#N)c(=O)n1-c1ccc(N)cc1)n2C [Compound 9],15.8 µM
4,COC(=O)c1ccc2c(c1)c1c(cc(C#N)c(=O)n1-c1ccc([N+](=O)[O-])cc1)n2C [Compound 12],2 µM
5,Cn1c2cc(F)c(F)cc2c2c1cc(C#N)c(=O)n2-c1ccc([N+](=O)[O-])cc1 [Compound 15],0.398 µM
6,COc1cc2c(cc1F)c1c(cc(C#N)c(=O)n1-c1ccc([N+](=O)[O-])cc1)n2C [Compound 16],3.98 µM
7,Cc1ccc2c(c1)c1c(cc(C#N)c(=O)n1-c1ccc([N+](=O)[O-])cc1)n2C [Compound 26],15.8 µM
8,N#Cc1cc2[nH]c3cc(F)c(F)cc3c2n(-c2ccc([N+](=O)[O-])cc2)c1=O [Compound 28],2.51 µM
9,Cn1c2cc(O)ccc2c2c1cc(C#N)c(=O)n2-c1ccc([N+](=O)[O-])cc1 [Compound 32],1.26 µM

# Now those with a lower EC50, led by results:
row,EC50,SMILES
1,0.316 µM,CN1CCN(c2ccc3c(c2)c2c(cc(C#N)c(=O)n2-c2ccc([N+](=O)[O-])cc2)n3C)CC1 [Compound 4]
2,0.158 µM,"CN(C)CCCN(C)c1ccc2c(c1)c1c(cc(C#N)c(=O)n1-c1ccc([N+](=O)[O-])cc1)n2C [Compound 7, 8-[(3-Dimethylamino-propyl)-methylamino]-5-methyl-1-(4-nitro-phenyl)-2-oxo-2,5-dihydro-1H-pyrido[3,2-b]indole-3-carbonitrile]"
3,0.251 µM,"CN(C)CCCOc1ccc2c(c1)c1c(cc(C#N)c(=O)n1-c1ccc([N+](=O)[O-])cc1)n2C [Compound 18, 8-[(3-Dimethylamino-propyl)-oxy]-5-methyl-1-(4-nitro-phenyl)-2-oxo-2,5-dihydro-1H-pyrido[3,2-b]indole-3-carbonitrile]"
4,0.0794 µM,"COc1ccc2c(c1)c1c(cc(C#N)c(=O)n1-c1ccc([N+](=O)[O-])cc1)n2C [Compound 27, 8-methoxy-5-methyl-1-(4-nitro-phenyl)-2-oxo-2,5-dihydro-1H-pyrido[3,2-b]indole-3-carbonitrile]"
5,0.2 µM,"Cn1c2ccc(O)cc2c2c1cc(C#N)c(=O)n2-c1ccc([N+](=O)[O-])cc1 [Compound 29, 8-hydroxy-5-methyl-1-(4-nitro-phenyl)-2-oxo-2,5-dihydro-1H-pyrido[3,2-b]indole-3-carbonitrile]"
